System: NOMO-1
Test: cell viability (% survival relative to DMSO control, bortezomib = 0%); higher = less cytotoxic
Settings: 100 nM; 72 h
Summary of the method: (§1)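 In 384-well plates pre-printed with compounds at 1, 10, 100, 1000 or 10000 nM, duplicate wells received cells from 10 AML and 5 CML lines at densities within the linear growth range. The plates stayed at 37 °C with 5% CO2 for 72 h before CellTiter-Glo luminescence was recorded. Each entry is averaged percent survival. Scaling placed vehicle at 100% and a 10 µM positive control at 0%.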

Structure (SMILES)	cell viability [%]
CCCCC/C=C\C/C=C\C/C=C\C/C=C\CCCCN1C(=O)C=CC1=O [N-Arachidonylmaleimide]	103
CCCCCCCCCCC[C@@H](C[C@@H]1OC(=O)[C@H]1CCCCCC)OC(=O)[C@H](CC(C)C)NC=O [Orlistat]	96.6
COc1ccc(C(=O)Nc2c(Cl)cncc2Cl)cc1OC1CCCC1 [Piclamilast]	94.6
COc1cc(/C=C/C(=O)N2CCC=CC2=O)cc(OC)c1OC [Piperlongumine]	105
O=C(NNc1ccccc1)c1ccncc1 [PluriSln 1]	91.8
CC(C)c1nc(CN(C)C(=O)N[C@H](C(=O)N[C@@H](Cc2ccccc2)C[C@H](O)[C@H](Cc2ccccc2)NC(=O)OCc2cncs2)C(C)C)cs1 [Ritonavir]	103
C=C(C)[C@H]1Cc2c(ccc3c2O[C@@H]2COc4cc(OC)c(OC)cc4[C@@H]2C3=O)O1 [Rotenone]	92
Oc1ccc(Nc2nc(-c3ccc(Cl)cc3)cs2)cc1 [SKI II]	104
O=C(O)c1cc(N=Nc2ccc(S(=O)(=O)Nc3ccccn3)cc2)ccc1O [Sulfasalazine]	99

Same assay, conditions: 1000 nM; 72 h

Structure (SMILES)	cell viability [%]
CCCCN1C[C@H](O)[C@@H](O)[C@H](O)[C@H]1CO [Miglustat]	103
C=C(C=NNC(=N)N)NNC(=N)N [Mitoguazone]	61.7
CCCCC/C=C\C/C=C\C/C=C\C/C=C\CCCCN1C(=O)C=CC1=O [N-Arachidonylmaleimide]	96.5
CCCCCCCCCCC[C@@H](C[C@@H]1OC(=O)[C@H]1CCCCCC)OC(=O)[C@H](CC(C)C)NC=O [Orlistat]	106
COc1ccc(C(=O)Nc2c(Cl)cncc2Cl)cc1OC1CCCC1 [Piclamilast]	97.1
COc1cc(/C=C/C(=O)N2CCC=CC2=O)cc(OC)c1OC [Piperlongumine]	100
O=C(NNc1ccccc1)c1ccncc1 [PluriSln 1]	106
CC(C)c1nc(CN(C)C(=O)N[C@H](C(=O)N[C@@H](Cc2ccccc2)C[C@H](O)[C@H](Cc2ccccc2)NC(=O)OCc2cncs2)C(C)C)cs1 [Ritonavir]	90.3
C=C(C)[C@H]1Cc2c(ccc3c2O[C@@H]2COc4cc(OC)c(OC)cc4[C@@H]2C3=O)O1 [Rotenone]	39.8
Oc1ccc(Nc2nc(-c3ccc(Cl)cc3)cs2)cc1 [SKI II]	99.3
O=C(O)c1cc(N=Nc2ccc(S(=O)(=O)Nc3ccccn3)cc2)ccc1O [Sulfasalazine]	101

Same assay, conditions: 10000 nM; 72 h

Structure (SMILES)	cell viability [%]
CCCCN1C[C@H](O)[C@@H](O)[C@H](O)[C@H]1CO [Miglustat]	90
C=C(C=NNC(=N)N)NNC(=N)N [Mitoguazone]	16.2
CCCCC/C=C\C/C=C\C/C=C\C/C=C\CCCCN1C(=O)C=CC1=O [N-Arachidonylmaleimide]	99.4
CCCCCCCCCCC[C@@H](C[C@@H]1OC(=O)[C@H]1CCCCCC)OC(=O)[C@H](CC(C)C)NC=O [Orlistat]	96.5
COc1ccc(C(=O)Nc2c(Cl)cncc2Cl)cc1OC1CCCC1 [Piclamilast]	110
COc1cc(/C=C/C(=O)N2CCC=CC2=O)cc(OC)c1OC [Piperlongumine]	0.949
O=C(NNc1ccccc1)c1ccncc1 [PluriSln 1]	89.6
CC(C)c1nc(CN(C)C(=O)N[C@H](C(=O)N[C@@H](Cc2ccccc2)C[C@H](O)[C@H](Cc2ccccc2)NC(=O)OCc2cncs2)C(C)C)cs1 [Ritonavir]	81.3
C=C(C)[C@H]1Cc2c(ccc3c2O[C@@H]2COc4cc(OC)c(OC)cc4[C@@H]2C3=O)O1 [Rotenone]	8.45
Oc1ccc(Nc2nc(-c3ccc(Cl)cc3)cs2)cc1 [SKI II]	66.1
O=C(O)c1cc(N=Nc2ccc(S(=O)(=O)Nc3ccccn3)cc2)ccc1O [Sulfasalazine]	102

System: SHI-1
Test: as above
Settings: 1 nM; 72 h
Summary of the method: as §1

Structure (SMILES)	cell viability [%]
CCCCN1C[C@H](O)[C@@H](O)[C@H](O)[C@H]1CO [Miglustat]	106
C=C(C=NNC(=N)N)NNC(=N)N [Mitoguazone]	93.8
CCCCC/C=C\C/C=C\C/C=C\C/C=C\CCCCN1C(=O)C=CC1=O [N-Arachidonylmaleimide]	100
CCCCCCCCCCC[C@@H](C[C@@H]1OC(=O)[C@H]1CCCCCC)OC(=O)[C@H](CC(C)C)NC=O [Orlistat]	101
COc1ccc(C(=O)Nc2c(Cl)cncc2Cl)cc1OC1CCCC1 [Piclamilast]	94.1
COc1cc(/C=C/C(=O)N2CCC=CC2=O)cc(OC)c1OC [Piperlongumine]	100
O=C(NNc1ccccc1)c1ccncc1 [PluriSln 1]	91.5
CC(C)c1nc(CN(C)C(=O)N[C@H](C(=O)N[C@@H](Cc2ccccc2)C[C@H](O)[C@H](Cc2ccccc2)NC(=O)OCc2cncs2)C(C)C)cs1 [Ritonavir]	100
C=C(C)[C@H]1Cc2c(ccc3c2O[C@@H]2COc4cc(OC)c(OC)cc4[C@@H]2C3=O)O1 [Rotenone]	96.3
Oc1ccc(Nc2nc(-c3ccc(Cl)cc3)cs2)cc1 [SKI II]	94.9
O=C(O)c1cc(N=Nc2ccc(S(=O)(=O)Nc3ccccn3)cc2)ccc1O [Sulfasalazine]	107

Same assay, conditions: 10 nM; 72 h

Structure (SMILES)	cell viability [%]
CCCCN1C[C@H](O)[C@@H](O)[C@H](O)[C@H]1CO [Miglustat]	93
C=C(C=NNC(=N)N)NNC(=N)N [Mitoguazone]	89.2
CCCCC/C=C\C/C=C\C/C=C\C/C=C\CCCCN1C(=O)C=CC1=O [N-Arachidonylmaleimide]	102
CCCCCCCCCCC[C@@H](C[C@@H]1OC(=O)[C@H]1CCCCCC)OC(=O)[C@H](CC(C)C)NC=O [Orlistat]	102
COc1ccc(C(=O)Nc2c(Cl)cncc2Cl)cc1OC1CCCC1 [Piclamilast]	105
COc1cc(/C=C/C(=O)N2CCC=CC2=O)cc(OC)c1OC [Piperlongumine]	98.3
O=C(NNc1ccccc1)c1ccncc1 [PluriSln 1]	95.5
CC(C)c1nc(CN(C)C(=O)N[C@H](C(=O)N[C@@H](Cc2ccccc2)C[C@H](O)[C@H](Cc2ccccc2)NC(=O)OCc2cncs2)C(C)C)cs1 [Ritonavir]	101
C=C(C)[C@H]1Cc2c(ccc3c2O[C@@H]2COc4cc(OC)c(OC)cc4[C@@H]2C3=O)O1 [Rotenone]	93.4
Oc1ccc(Nc2nc(-c3ccc(Cl)cc3)cs2)cc1 [SKI II]	97.8
O=C(O)c1cc(N=Nc2ccc(S(=O)(=O)Nc3ccccn3)cc2)ccc1O [Sulfasalazine]	87.6

Same assay, conditions: 100 nM; 72 h

Structure (SMILES)	cell viability [%]
CCCCN1C[C@H](O)[C@@H](O)[C@H](O)[C@H]1CO [Miglustat]	102
C=C(C=NNC(=N)N)NNC(=N)N [Mitoguazone]	95.4
CCCCC/C=C\C/C=C\C/C=C\C/C=C\CCCCN1C(=O)C=CC1=O [N-Arachidonylmaleimide]	96.7
CCCCCCCCCCC[C@@H](C[C@@H]1OC(=O)[C@H]1CCCCCC)OC(=O)[C@H](CC(C)C)NC=O [Orlistat]	106
COc1ccc(C(=O)Nc2c(Cl)cncc2Cl)cc1OC1CCCC1 [Piclamilast]	106
COc1cc(/C=C/C(=O)N2CCC=CC2=O)cc(OC)c1OC [Piperlongumine]	106
O=C(NNc1ccccc1)c1ccncc1 [PluriSln 1]	93
CC(C)c1nc(CN(C)C(=O)N[C@H](C(=O)N[C@@H](Cc2ccccc2)C[C@H](O)[C@H](Cc2ccccc2)NC(=O)OCc2cncs2)C(C)C)cs1 [Ritonavir]	109
